Molecules are shown by their SMILES.

Series [1] has as its target Hematopoietic prostaglandin D synthase (Homo sapiens, UniProt O60760). The experiment in a line: Inhibition of glutathione-S-transferase activity of prostaglandin D2 synthase.
Series [2] is described as follows: Toxicity against PMA/ionomycin treated human LAD2 cells assessed as cellular viability. The series is classed as cell-based.
Series [3] deals with LAD2. The experiment in a line: Inhibition of PMA/ionomycin-induced PDG2 synthesis in human LAD2 cells. The series is classed as functional, cell-based.

Chain of Hematopoietic prostaglandin D synthase (O60760 whole entry): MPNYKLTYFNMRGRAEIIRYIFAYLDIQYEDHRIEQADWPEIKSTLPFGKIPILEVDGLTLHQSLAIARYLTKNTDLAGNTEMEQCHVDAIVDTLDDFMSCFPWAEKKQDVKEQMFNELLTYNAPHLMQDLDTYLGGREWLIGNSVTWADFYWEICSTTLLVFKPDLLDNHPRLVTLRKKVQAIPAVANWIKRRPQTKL

As for `Cc1cc(C)c(-c2cc[nH]n2)[nH]1`, the midpoint of inhibition in series [1], the IC50, lay at 26.4 µM.

Consider `COc1ccc(-c2cnn(-c3ccccc3)c2N)cc1OC`, for which, in series [1], inhibition was half-maximal at 33 µM (IC50). Still for that read-out and setting: as for `O=C1c2ccccc2-c2nnc(-c3ccc(O)cc3)cc21`, the figure is 3.8 µM; as for `Cc1ccc(NC(=O)c2cc(-c3ccccc3)ns2)cc1NC(=O)c1cccc(CN2CCN(C)CC2)c1`, 0.075 µM; as for `Cc1ccc(-c2cc3c(nn2)-c2ccccc2C3=O)cc1`, 3.8 µM.

For `Cc1ccc(-c2cc[nH]n2)cn1`, in series [1], half-maximal inhibition (IC50) required 34.7 µM.

For the compound `Oc1c(Cl)cc(Cl)cc1-c1cc[nH]n1`, in series [1], the half-inhibitory concentration (IC50) – broadly, the midpoint of a concentration-inhibition curve – was determined as 17.4 µM. Same read-out and setting: as for `COc1ccccc1-c1csc(Nc2ccc(C(=O)O)cc2)n1`, the figure is 0.994 µM. For `c1ccc(-c2ncc(-c3cc[nH]n3)s2)cc1`, in series [2], the Activity entry is listed as “Non-toxic”. Moreover, the EC50 (in general, the concentration giving half of the maximal effect) in series [3] was determined as 1.7 µM. In turn, `CCOC(=O)c1cc(O)c(-c2ccccc2)nn1` returned an IC50 in series [1] of 45 µM. On the same count and under the same terms, as for `COc1ccc(C(=O)CBr)c2ccccc12`, the figure is 12.4 µM.

For `COC(=O)c1ccc(-c2nnc(-c3ccncc3)[nH]2)nc1`, half-maximal inhibition in series [1] (IC50) was put at 1.5 µM.

(Values after ChEMBL document CHEMBL1142434, “Novel prostaglandin D synthase inhibitors generated by fragment-based drug design” (J Med Chem, 2008).)
